Measurements published in patent EP0414533A1, “Use of iodopropargyl esters of alpha-amino acid derivatives as antimicrobial agents” (ROHM AND HAAS COMPANY, priority 1989, dated 1991).
≈ marks a conversion by molar mass, not a printed value. Where two headings read alike, the source gives them in different places.

Tests used:
[1] = system: Aureobasidium pullulans (APUL); test: Minimum inhibitory concentration (MIC), broth two-fold serial dilution test; format: cell-based; conditions: Aureobasidium pullulans, IIIB, trypticase soy broth (complex media); Table IIIb; read-out: MIC (F) APUL
[2] = system: Pseudomonas fluorescens (PSFL); test: as above; conditions: Pseudomonas fluorescens, IIIB, read-out: MIC (G-) PSFL, trypticase soy broth (complex media); Table IIIb
Excerpt: When the test is ready to be done, each vessel in the dilution series, except the first vessel, contains an equal volume of compound free broth. The first vessel contains twice the volume of broth with the starting concentration of test compound. One half of the broth from the first vessel is transferred to the second vessel. After being mixed, one half the resulting volume is removed from the second vessel and transferred to the third vessel. The entire cycle is repeated sufficiently to give a series of concentrations amounting to 500, 250, 125, 63, 31, 16, 8, and 4 ppm (or 100, 50, 25, 12.5, 6.2, 3.1, 1.6, and 0.8), respectively.
Each vessel is then inoculated with a cell suspension of the appropriate test organism. Bacteria are grown in broth, fungi on agar slants for a time and at a temperature appropriate to the species being tested, and algae are a mixture of green algae and blue-green bacteria grown in a nutrient media. At the end of the growth period, in the case of bacteria, the broth is vortexed to disperse the cells.
The vessels are then incubated at the appropriate temperature. After the incubation, the vessels are examined for growth/no growth.

THREE FUNGI = test: MIC test against three fungi in Mycophile Broth, pH 5.0, read after 8 days (Table VII); format: cell-based; conditions: 192 h, serial dilutions from 50 ppm, read after 8 days of incubation
8 FUNGI = test: Microbicides secondary test against 8 fungi on Mycophile Agar at pH 5.0 (Table VI); format: cell-based; parameters: key: 1= no growth; 0= growth of the indicated fungi at dose indicated in ppm; conditions: for ANIG growth: Aspergillus niger; for APUL growth: Aureobasidium pullulans; for CGLO growth: Chaetomium globosum; for CRES growth: Cladosporium resinae; for GTRA growth: Gloeophyllum trabeum; for PFUN growth: Penicillium funiculosum; for RRUB growth: Rhodotorula rubra; for SSER growth: Sacharomyces cerevisiae
Excerpt: The results of the minimum inhibitory concentration (MIC) tests of compounds of this invention are shown in Tables IIIa IIIb, IIIc, V, VI, VII, and VIII against the microorganisms shown in Table IX.

Aspergillus niger (ANIG) = test: Minimum inhibitory concentration (MIC), broth two-fold serial dilution test; format: cell-based; conditions: Aspergillus niger, IIIB, trypticase soy broth (complex media); Table IIIb; read-out: MIC (F) ANIG
[3] = system: Pseudomonas aerugenosa (PSAE); test: as above; conditions: Pseudomonas, IIIB, read-out: MIC (G-) PSAE, trypticase soy broth (complex media); Table IIIb
Escherichia coli (ECOL) = test: as above; conditions: Escherichia coli, IIIB, read-out: MIC (G-) ECOL, trypticase soy broth (complex media); Table IIIb
[4] = system: MIXED COOLING TOWER ALGAE; test: MIC test against mixed cooling tower algae; format: cell-based, green algae and blue-green bacteria; conditions: Table VIII
Procedure: The algae culture contains green algae and blue-green bacteria, and is obtained from a cooling tower in Spring House, Pennsylvania. The algae culture is grown in Allen's medium on a rotary shaker under flourescent room lighting. This culture is further diluted with Allen's medium and then added to the test vessel.

[5] = system: Staphylococcus aureus (SAUR); test: Minimum inhibitory concentration (MIC), broth two-fold serial dilution test; conditions: Staphylococcus aureus, IIIB, read-out: MIC (G+) SAUR, trypticase soy broth (complex media); Table IIIb
[6] = Aspergillus niger, read-out: MIC ANIG
[7] = Aureobasidium pullulans, read-out: MIC APUL
[8] = Gloeophyllum trabeum, read-out: MIC GTRA

## O=C(CNC(=O)OCc1ccccc1)OCC#CI [Compound 31, N-benzyloxycarbonylglycine iodopropargyl ester]
[1]
  MIC: 4 µg/mL (≈ 10.7 µM)
[2]
  MIC: 32 µg/mL (≈ 85.8 µM)
THREE FUNGI; [6]
  MIC: 1.6 µg/mL (≈ 4.29 µM)
THREE FUNGI; [7]
  MIC: 6.2 µg/mL (≈ 16.6 µM)
THREE FUNGI; [8]
  MIC: 0.8 µg/mL (≈ 2.14 µM)
8 FUNGI; 0.2 PPM
  ANIG growth: 0
  APUL growth: 0
  CGLO growth: 0
  CRES growth: 0
  GTRA growth: 0
  PFUN growth: 0
  RRUB growth: 0
  SSER growth: 0
8 FUNGI; 1.0 PPM
  ANIG growth: 0
  APUL growth: 0
  CGLO growth: 0
  CRES growth: 0
  GTRA growth: 0
  PFUN growth: 0
  RRUB growth: 0
  SSER growth: 0
8 FUNGI; 2.5 PPM
  ANIG growth: 1
  APUL growth: 0
  CGLO growth: 1
  CRES growth: 0
  GTRA growth: 1
  PFUN growth: 1
  RRUB growth: 0
  SSER growth: 0
8 FUNGI; 25 PPM
  ANIG growth: 1
  APUL growth: 1
  CGLO growth: 1
  CRES growth: 1
  GTRA growth: 1
  PFUN growth: 1
  RRUB growth: 1
  SSER growth: 1
Aspergillus niger (ANIG)
  MIC: 2 µg/mL (≈ 5.36 µM)
[3]
  MIC: 63 µg/mL (≈ 169 µM)
Escherichia coli (ECOL)
  MIC: 250 µg/mL (≈ 670 µM)
[4]
  MIC: 6.2 µg/mL (≈ 16.6 µM)
[5]
  MIC: 32 µg/mL (≈ 85.8 µM)

## O=CNCC(=O)OCC#CI [Compound 32, N-formylglycine iodopropargyl ester]
[1]
  MIC: 8 µg/mL (≈ 30 µM)
[2]
  MIC: 32 µg/mL (≈ 120 µM)
THREE FUNGI; [6]
  MIC: 12.5 µg/mL (≈ 46.8 µM)
THREE FUNGI; [7]
  MIC: 25 µg/mL (≈ 93.6 µM)
THREE FUNGI; [8]
  MIC: 3.2 µg/mL (≈ 12 µM)
8 FUNGI; 0.2 PPM
  ANIG growth: 0
  APUL growth: 0
  CGLO growth: 0
  CRES growth: 0
  GTRA growth: 0
  PFUN growth: 0
  RRUB growth: 0
  SSER growth: 0
8 FUNGI; 1.0 PPM
  ANIG growth: 0
  APUL growth: 0
  CGLO growth: 0
  CRES growth: 0
  GTRA growth: 0
  PFUN growth: 0
  RRUB growth: 0
  SSER growth: 0
8 FUNGI; 2.5 PPM
  ANIG growth: 0
  APUL growth: 0
  CGLO growth: 0
  CRES growth: 0
  GTRA growth: 0
  PFUN growth: 0
  RRUB growth: 0
  SSER growth: 0
8 FUNGI; 25 PPM
  ANIG growth: 1
  APUL growth: 1
  CGLO growth: 1
  CRES growth: 1
  GTRA growth: 1
  PFUN growth: 1
  RRUB growth: 1
  SSER growth: 1
Aspergillus niger (ANIG)
  MIC: 2 µg/mL (≈ 7.49 µM)
[3]
  MIC: 63 µg/mL (≈ 236 µM)
Escherichia coli (ECOL)
  MIC: 63 µg/mL (≈ 236 µM)
[4]
  MIC: 6.2 µg/mL (≈ 23.2 µM)
[5]
  MIC: 63 µg/mL (≈ 236 µM)

## CCCCCCCC(=O)NCC(=O)OCC#CI [Compound 34, N-octanoylglycine iodopropargyl ester]
[1]
  MIC: 8 µg/mL (≈ 21.9 µM)
[2]
  MIC: 63 µg/mL (≈ 173 µM)
THREE FUNGI; [6]
  MIC: 1.6 µg/mL (≈ 4.38 µM)
THREE FUNGI; [7]
  MIC: 12.5 µg/mL (≈ 34.2 µM)
THREE FUNGI; [8]
  MIC: 3.2 µg/mL (≈ 8.76 µM)
8 FUNGI; 0.2 PPM
  ANIG growth: 0
  APUL growth: 0
  CGLO growth: 0
  CRES growth: 0
  GTRA growth: 0
  PFUN growth: 0
  RRUB growth: 0
  SSER growth: 0
8 FUNGI; 1.0 PPM
  ANIG growth: 1
  APUL growth: 0
  CGLO growth: 1
  CRES growth: 0
  GTRA growth: 1
  PFUN growth: 0
  RRUB growth: 0
  SSER growth: 0
8 FUNGI; 2.5 PPM
  ANIG growth: 1
  APUL growth: 0
  CGLO growth: 0
  CRES growth: 0
  GTRA growth: 1
  PFUN growth: 1
  RRUB growth: 0
  SSER growth: 0
8 FUNGI; 25 PPM
  ANIG growth: 1
  APUL growth: 1
  CGLO growth: 1
  CRES growth: 1
  GTRA growth: 1
  PFUN growth: 1
  RRUB growth: 1
  SSER growth: 1
Aspergillus niger (ANIG)
  MIC: < 0.12 µg/mL
[3]
  MIC: 125 µg/mL (≈ 342 µM)
Escherichia coli (ECOL)
  MIC: > 250 µg/mL
[4]
  MIC: 12.5 µg/mL (≈ 34.2 µM)
[5]
  MIC: 250 µg/mL (≈ 685 µM)

## C/C=C/C=C/C(=O)NCC(=O)OCC#CI [Compound 35, N-sorbylglycine iodopropargyl ester]
[1]
  MIC: 4 µg/mL (≈ 12 µM)
[2]
  MIC: 63 µg/mL (≈ 189 µM)
THREE FUNGI; [6]
  MIC: 1.6 µg/mL (≈ 4.8 µM)
THREE FUNGI; [7]
  MIC: 6.2 µg/mL (≈ 18.6 µM)
THREE FUNGI; [8]
  MIC: 0.4 µg/mL (≈ 1.2 µM)
8 FUNGI; 0.2 PPM
  ANIG growth: 0
  APUL growth: 0
  CGLO growth: 0
  CRES growth: 0
  GTRA growth: 0
  PFUN growth: 0
  RRUB growth: 0
  SSER growth: 0
8 FUNGI; 1.0 PPM
  ANIG growth: 1
  APUL growth: 0
  CGLO growth: 1
  CRES growth: 0
  GTRA growth: 1
  PFUN growth: 0
  RRUB growth: 0
  SSER growth: 0
8 FUNGI; 2.5 PPM
  ANIG growth: 1
  APUL growth: 0
  CGLO growth: 1
  CRES growth: 0
  GTRA growth: 1
  PFUN growth: 1
  RRUB growth: 1
  SSER growth: 0
8 FUNGI; 25 PPM
  ANIG growth: 1
  APUL growth: 1
  CGLO growth: 1
  CRES growth: 1
  GTRA growth: 1
  PFUN growth: 1
  RRUB growth: 1
  SSER growth: 1
Aspergillus niger (ANIG)
  MIC: 2 µg/mL (≈ 6 µM)
[3]
  MIC: 125 µg/mL (≈ 375 µM)
Escherichia coli (ECOL)
  MIC: 125 µg/mL (≈ 375 µM)
[4]
  MIC: 6.2 µg/mL (≈ 18.6 µM)
[5]
  MIC: 63 µg/mL (≈ 189 µM)
